Results from ChEMBL document CHEMBL3091411, “Quercetin inhibits inflammatory bone resorption in a mouse periodontitis model” (J Nat Prod, 2013).
Calls of active or inactive are those of the source. The rule behind the calls is not given here.

Tests used:
Mus musculus [1] = test: Antiinflammatory activity in Aggregatibacter actinomycetemcomitans infected Balb/c mouse model assessed as inhibition of TNFalpha production at 100 mg/kg, sc for 15 days post Aggregatibacter actinomycetemcomitans-challenge by ELISA; assay type: functional, organism-based; parameters: dose 100 mg/kg
Mus musculus [2] = test: Antiperiodontitic activity in Aggregatibacter actinomycetemcomitans infected Balb/c mouse model assessed as downregulation of ICAM-1 expression at 100 mg/kg, sc for 15 days post Aggregatibacter actinomycetemcomitans-challenge by Western blotting analysis; assay type: functional, organism-based; parameters: dose 100 mg/kg
Mus musculus [3] = test: Antiperiodontitic activity in Aggregatibacter actinomycetemcomitans infected Balb/c mouse model assessed as downregulation of RANKL expression at 100 mg/kg, sc for 15 days post Aggregatibacter actinomycetemcomitans-challenge by Western blotting analysis; assay type: functional, organism-based; parameters: dose 100 mg/kg
Mus musculus [4] = test: Antiinflammatory activity in Aggregatibacter actinomycetemcomitans infected Balb/c mouse model assessed as inhibition of IL-1beta production at 100 mg/kg, sc for 15 days post Aggregatibacter actinomycetemcomitans-challenge by ELISA; assay type: functional, organism-based; parameters: dose 100 mg/kg
Mus musculus [5] = test: Effect on OPG expression in Aggregatibacter actinomycetemcomitans infected Balb/c mouse model at 100 mg/kg, sc for 15 days post Aggregatibacter actinomycetemcomitans-challenge by Western blotting analysis; assay type: ADME, organism-based; parameters: dose 100 mg/kg, route subcutaneous; conditions: in vivo, 360 h
Mus musculus [6] = test: Antiinflammatory activity in Aggregatibacter actinomycetemcomitans infected Balb/c mouse model assessed as inhibition of IL-17 production at 100 mg/kg, sc for 15 days post Aggregatibacter actinomycetemcomitans-challenge by ELISA; assay type: functional, organism-based; parameters: dose 100 mg/kg
[7] = test system: Aggregatibacter actinomycetemcomitans; test: Antimicrobial activity against Aggregatibacter actinomycetemcomitans infected in Balb/c mouse measured per 10^6 colonies at 100 mg/kg, sc measured 14 days post-infection by Gram staining technique (reference value: 6.41 +/- 0.96); assay type: functional; conditions: route subcutaneous
Mus musculus [8] = test: Antiperiodontitic activity in Aggregatibacter actinomycetemcomitans infected Balb/c mouse model assessed as inhibition of alveolar bone loss at 100 mg/kg, sc for 15 days post Aggregatibacter actinomycetemcomitans-challenge by methylene blue staining-based microscopic analysis; assay type: functional, organism-based; parameters: dose 100 mg/kg

`O=c1c(O)c(-c2ccc(O)c(O)c2)oc2cc(O)cc(O)c12` [QUERCETIN] was tested. Which inhibition (Mus musculus [1]) did it give?
Its inhibition is “Active”.

What about the Activity (Mus musculus [2]) of the same compound?
Its Activity is “Active”.

And the Activity (Mus musculus [3])?
The Activity was “Active”.

And the inhibition (Mus musculus [4])?
The inhibition was “Active”.

What about the Activity (Mus musculus [5]) of the same compound?
The Activity was “Non-toxic”.

What about the inhibition (Mus musculus [6]) of the same compound?
Its inhibition is “Active”.

What about the CFU [7] of the same compound?
The CFU was 5.86.

What about the inhibition (Mus musculus [8]) of the same compound?
Its inhibition is “Active”.
